Values of other authors, collected in patent US20130034537A1, “SIMULTANEOUS CO-TREATMENT OF PHYSICAL AND MENTAL SYMPTOMS RELATED TO SEVERE MENTAL DISORDERS BY A SPECIALLY FERMENTED SOY FORMULATION (FSWW08)” (priority 2010, published 2013).

Legend:
adrenals = settings: rats
immunity = settings: for Magnitude of immunity, ratio: DHEA = 1
schizophrenic men = settings: oral 2 mg
[1] = male steroid hormones

## O=c1c(-c2ccc(O)cc2)coc2cc(O)cc(O)c12 [genistein]
adrenals
  DHEA production: supporting
  aldosterone production: inhibiting
  corticosterone production: inhibiting

## C[C@]12CCC(O)C[C@@H]1CC[C@@H]1[C@@H]2CC[C@]2(C)[C@@H](O)CC[C@@H]12 (stereo partly drawn) [androstanediol]
immunity
  potency in mediating immunity compared to DHEA: 100 times

## C[C@]12CC[C@H](O)CC1=CC[C@@H]1[C@@H]2CC[C@]2(C)C(=O)CC[C@@H]12 [DHEA, dehydroepiandrosterone]
immunity
  Magnitude of immunity, ratio: 1

## CCCCC(=O)O[C@H]1CC[C@H]2[C@@H]3CCc4cc(O)ccc4[C@H]3CC[C@]12C [estradiol valeriate]
Schizophrenic men
  patients who failed to increase estradiol levels: 27%
  testosterone: reduce

## C[C@]12CCC(O)CC1=CC(O)[C@@H]1[C@@H]2CC[C@]2(C)C(O)CC[C@@H]12 (stereo partly drawn) [Androstenetriol]
immunity
  Magnitude of immunity, ratio: 1000

## C[C@]12CCC(=O)C[C@@H]1CC[C@@H]1[C@@H]2CC[C@]2(C)[C@@H](O)CC[C@@H]12 [DHT, dihydrotestosterone]
[1]
  activity relative to testosterone: 10 times
